In US7476673B2, “Disubstituted chalcone oximes as selective agonists of RARγ retinoid receptors” (Allergan, Inc., priority 2003, dated 2009):

How the values were obtained:
RARα [1] = molecular target: T1, RARα (Homo sapiens, UniProt P10276); test: ligand binding assay, RARα; conditions: results expressed in Ki numbers, read-out: RAR Binding α
T1 sequence (P10276 1-462): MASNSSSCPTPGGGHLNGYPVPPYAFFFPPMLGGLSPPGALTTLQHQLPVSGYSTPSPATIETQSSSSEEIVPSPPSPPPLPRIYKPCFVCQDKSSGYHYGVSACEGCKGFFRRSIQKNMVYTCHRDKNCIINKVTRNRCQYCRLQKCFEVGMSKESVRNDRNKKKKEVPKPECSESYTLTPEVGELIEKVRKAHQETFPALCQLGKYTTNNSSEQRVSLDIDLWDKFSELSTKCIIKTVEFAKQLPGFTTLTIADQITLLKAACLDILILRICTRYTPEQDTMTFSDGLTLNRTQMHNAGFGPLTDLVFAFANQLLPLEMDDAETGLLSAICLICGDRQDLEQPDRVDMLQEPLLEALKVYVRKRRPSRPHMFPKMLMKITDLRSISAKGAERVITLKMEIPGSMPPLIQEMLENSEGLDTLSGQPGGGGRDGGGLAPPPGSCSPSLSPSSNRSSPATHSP
From the text: (§1) A holoreceptor transactivation assay and a ligand binding assay which measure the antagonist/agonist like activity of the compounds of the invention, or their ability to bind to the several retinoid receptor subtypes, respectively, are described in published PCT Application No. WO WO93/11755 (particularly on pages 30-33 and 37-41) published on Jun. 24, 1993, the specification of which is also incorporated herein by reference. A detailed experimental procedure for holoreceptor transactivations has been described by Heyman et al. Cell 68, 397-406, (1992); Allegretto et al. J. Biol. Chem. 268, 26625-26633, and Mangelsdorf et al. The Retinoids: Biology, Chemistry and Medicine, pp 319-349, Raven Press Ltd., New York, which are expressly incorporated herein by reference. The results obtained in this assay are expressed in EC50 numbers, as they are also in the chimeric receptor transactivation assay. The results of the ligand binding assay are expressed in Ki numbers. (See Cheng et al. Biochemical Pharmacology Vol. 22 pp 3099-3108, expressly incorporated herein by reference.)
(§2) Table 1 discloses the activity of certain exemplary compounds of the invention in the above-described chimeric RAR receptor transactivation and binding assays.

RARγ [2] = molecular target: T2, RARγ (Homo sapiens, UniProt P13631); test: ligand binding assay, RARγ; conditions: results expressed in Ki numbers, read-out: RAR Binding γ
T2 sequence (P13631 1-454): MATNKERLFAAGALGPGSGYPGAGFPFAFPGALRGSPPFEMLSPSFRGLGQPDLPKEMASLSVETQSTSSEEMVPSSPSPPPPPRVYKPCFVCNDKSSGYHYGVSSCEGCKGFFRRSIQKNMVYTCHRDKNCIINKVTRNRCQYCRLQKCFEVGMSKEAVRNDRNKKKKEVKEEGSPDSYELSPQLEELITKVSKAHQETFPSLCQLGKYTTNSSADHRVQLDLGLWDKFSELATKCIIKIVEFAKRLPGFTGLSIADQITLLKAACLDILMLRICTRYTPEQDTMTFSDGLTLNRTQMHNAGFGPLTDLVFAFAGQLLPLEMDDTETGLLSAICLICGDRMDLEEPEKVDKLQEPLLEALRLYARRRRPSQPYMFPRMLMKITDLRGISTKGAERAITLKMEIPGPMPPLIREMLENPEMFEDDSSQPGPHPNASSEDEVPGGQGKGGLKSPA
From the text: as §1, §2

RARγ [3] = molecular target: T3, RARγ (Homo sapiens, UniProt P13631); test: chimeric receptor transactivation assay, RARγ; assay type: cell-based; conditions: for EC50: chimeric receptor transactivation, read-out: RAR EC50 γ; for % Efficiency γ: percentage of maximum compared to standard TTNPB
T3 construct: % Efficiency γ; other: percentage of maximum compared to standard TTNPB
T3 sequence (P13631 185-454 limits assumed): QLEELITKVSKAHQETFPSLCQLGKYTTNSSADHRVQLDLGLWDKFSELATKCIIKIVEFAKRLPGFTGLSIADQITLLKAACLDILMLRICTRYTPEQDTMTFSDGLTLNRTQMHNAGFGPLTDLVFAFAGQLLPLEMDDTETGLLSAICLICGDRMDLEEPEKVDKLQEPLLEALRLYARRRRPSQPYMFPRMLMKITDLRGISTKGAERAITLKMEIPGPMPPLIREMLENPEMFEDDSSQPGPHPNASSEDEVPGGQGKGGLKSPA
Procedure: (§3) The compounds of the invention were tested in certain assays for activity as agonists of RAR and RXR retinoid receptors. Specifically, one such assay is a chimeric receptor transactivation assay which tests for agonist-like activity in the RARα, RARβ and RARγ receptor subtypes, and which is based on work published by Feigner P. L. and Holm M. (1989) Focus, 112 is described in detail in U.S. Pat. No. 5,455,265. The specification of U.S. Pat. No. 5,455,265 is hereby expressly incorporated by reference.
as §1
(§4) Efficacy in a transactivation assay is expressed as a percentage of the maximum potency attained by the compound compared to a standard which, in this case, is the compound 4-[(1E)-2-(5,6,7,8-tetrahydro-5,5,8,8-tetramethyl-2-naphthalenyl)-1-propenyl]-benzoic acid. (TTNPB) This standard compound is described in PCT Publication WO 2002077169 A2.
as §2

RARβ [4] = molecular target: T4, RARβ (Homo sapiens, UniProt P10826); test: ligand binding assay, RARβ; conditions: results expressed in Ki numbers, read-out: RAR Binding β
T4 sequence (P10826 1-455): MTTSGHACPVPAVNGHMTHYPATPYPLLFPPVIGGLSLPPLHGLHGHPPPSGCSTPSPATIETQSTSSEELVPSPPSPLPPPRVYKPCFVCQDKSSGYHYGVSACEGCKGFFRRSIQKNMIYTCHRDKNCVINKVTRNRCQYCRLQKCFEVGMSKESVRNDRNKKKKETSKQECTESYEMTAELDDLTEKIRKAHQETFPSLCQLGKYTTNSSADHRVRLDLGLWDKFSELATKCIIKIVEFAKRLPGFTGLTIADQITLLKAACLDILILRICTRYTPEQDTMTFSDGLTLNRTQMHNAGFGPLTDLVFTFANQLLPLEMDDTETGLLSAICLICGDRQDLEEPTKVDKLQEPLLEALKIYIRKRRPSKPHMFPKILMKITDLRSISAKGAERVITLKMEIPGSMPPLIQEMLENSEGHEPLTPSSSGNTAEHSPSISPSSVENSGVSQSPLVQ
From the text: as §1, §2

RARα [5] = molecular target: T5, RARα (Homo sapiens, UniProt P10276); test: chimeric receptor transactivation assay, RARα; assay type: cell-based; conditions: for EC50: chimeric receptor transactivation, read-out: RAR EC50 α; for % Efficiency α: percentage of maximum compared to standard TTNPB
T5 sequence (P10276 183-417 limits assumed): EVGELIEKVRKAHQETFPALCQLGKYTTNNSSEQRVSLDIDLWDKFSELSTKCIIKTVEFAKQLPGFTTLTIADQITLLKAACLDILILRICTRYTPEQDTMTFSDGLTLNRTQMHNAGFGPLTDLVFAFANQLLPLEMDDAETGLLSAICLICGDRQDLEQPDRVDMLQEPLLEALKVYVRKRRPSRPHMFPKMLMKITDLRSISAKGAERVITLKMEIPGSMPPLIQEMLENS
Procedure: as §3, §1, §4, §2

RARβ [6] = molecular target: T6, RARβ (Homo sapiens, UniProt P10826); test: chimeric receptor transactivation assay, RARβ; assay type: cell-based; conditions: for EC50: chimeric receptor transactivation, read-out: RAR EC50 β; for % Efficiency β: percentage of maximum compared to standard TTNPB
T6 sequence (P10826 183-455 limits assumed): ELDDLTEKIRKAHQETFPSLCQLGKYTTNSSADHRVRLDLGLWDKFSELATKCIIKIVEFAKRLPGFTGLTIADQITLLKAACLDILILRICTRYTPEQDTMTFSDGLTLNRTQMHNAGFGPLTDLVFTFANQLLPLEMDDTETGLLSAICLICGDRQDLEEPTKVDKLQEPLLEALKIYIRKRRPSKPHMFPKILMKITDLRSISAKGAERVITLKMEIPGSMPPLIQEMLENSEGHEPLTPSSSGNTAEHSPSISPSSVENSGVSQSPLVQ
Procedure: as §3, §1, §4, §2

Row | SMILES | Ki (RARα [1]) [µM] | Ki (RARγ [2]) [µM] | EC50 (RARγ [3]) [µM] | % Efficiency γ (RARγ [3]) [%] | Ki (RARβ [4]) [µM] | EC50 (RARα [5]) [µM] | % Efficiency α (RARα [5]) [%] | EC50 (RARβ [6]) [µM] | % Efficiency β (RARβ [6]) [%]
1 | CC1(C)CCCc2ccc(C(/C=C/c3ccc(C(=O)O)cc3F)=N/O)cc21 | 5.2 | 0.046 | 0.044 | 97 | 1.2 | 0.118 | 39 | 0.062 | 133
2 | CC1(C)CCCc2ccc(C(/C=C/c3ccc(C(=O)O)cc3F)=N\O)cc21 | 2.1 | 0.132 | 0.014 | 123 | 7 | 0.345 | 120 | 4.06 | 95
3 | CC1(C)CCSc2ccc(C(/C=C/c3ccc(C(=O)O)cc3F)=N/O)cc21 | 10 | 0.015 | 0.01 | 90 | 8 | > 1 | – | 0.173 | 55
4 | CC1(C)CCSc2ccc(C(/C=C/c3ccc(C(=O)O)cc3F)=N\O)cc21 | 10 | 0.019 | 0.021 | 120 | 10 | > 1 | – | 0.503 | 45
5 | CCCCCCCN1C(=O)CC(C)(C)c2cc(C(C=Cc3ccc(C(=O)O)cc3)=NO)ccc21 | 11 | 0.051 | 0.01 | 11 | 29 | > 1 | – | – | –
6 | CCCCCCCN1C(=O)CC(C)(C)c2cc(C(/C=C/c3ccc(C(=O)O)cc3)=N\O)ccc21 | 17 | 0.032 | 0.092 | 35 | 9 | > 1 | – | 0.473 | 23
7 | CC1=CCC(C)(C)c2cc(C(/C=C/c3ccc(C(=O)O)cc3)=N/O)ccc21 | 3 | 0.006 | 0.0003 | 91 | 1.3 | 7 | 38 | 0.054 | 95
8 | CC1=CCC(C)(C)c2cc(C(/C=C/c3ccc(C(=O)O)cc3F)=N/O)ccc21 | 7 | 0.256 | 0.002 | 92 | 11 | > 1 | – | 0.168 | 86
9 | CC1=CCC(C)(C)c2cc(C(/C=C/c3ccc(C(=O)O)cc3)=N\O)ccc21 | 4 | 0.036 | 0.004 | 95 | 3 | 0.515 | 50 | 0.094 | 104
10 | CC1=CCC(C)(C)c2cc(C(/C=C/c3ccc(C(=O)O)cc3F)=N\O)ccc21 | 18 | 0.028 | 0.011 | 90 | 11 | > 1 | – | 0.445 | 92
11 | CC1(C)CC(C)(C)c2cc(C(C=Cc3ccc(C(=O)O)cc3F)=NO)ccc21 | 14 | 0.025 | 0.001 | 72 | 25 | > 1 | – | 0.114 | 79
12 | CC1(C)CC(C)(C)c2cc(C(/C=C/c3ccc(C(=O)O)cc3F)=N\O)ccc21 | 13 | 0.264 | 0.009 | 79 | 27 | > 1 | – | 0.249 | 82
13 | COc1cc2c(cc1C(/C=C/c1ccc(C(=O)O)cc1)=N/O)C(C)(C)CCC2(C)C | 2 | 0.648 | 0.019 | 98 | 2.5 | 80 | 29 | 1.27 | 65
14 | COc1cc2c(cc1C(/C=C/c1ccc(C(=O)O)cc1)=N\O)C(C)(C)CCC2(C)C | 10 | 1.5 | 0.084 | 107 | 10 | > 1 | – | 5.92 | 44
15 | CC1(C)CCC(C)(C)c2nc(C(C=Cc3ccc(C(=O)O)cc3)=NO)cnc21 [drawing 34] | 27 | 0.24 | 0.01 | 123 | – | 4 | 41 | 0.105 | 88
16 | CC1(C)CCC(C)(C)c2nc(C(C=Cc3ccc(C(=O)O)cc3)=NO)cnc21 [drawing 35] | 25 | 0.461 | 0.143 | 151 | – | 0.128 | 54 | 0.077 | 110
